Measurements reported in patent US7422883B2, “Map kinase integrin-binding domain” (Inter-K Pty Limited, priority 2000, dated 2008).
No end group written: not given here.

What was measured:
[1] = target: T1, ERK2 (Mus musculus, UniProt P63085); experiment: ELISA of ERK2 binding to biotinylated integrin cytoplasmic domain peptides
T1 construct: GST (glutathione-S-transferase); made in house
Protocol: Peptide fragments corresponding to regions of the cytoplasmic tail domain of the β6 subunit were screened in an enzyme-linked immunosorbent assay (ELISA) for binding with ERK2. The 52 amino acid long β6 cytoplasmic tail is shown in FIG. 16 as are the amino acid sequences for the cytoplasmic domains of the β1 to β3 subunits. In particular, four synthetic peptides designated fragment 1 to fragment 4 were prepared and biotinylated at the N-terminal end of each, respectively (Auspep Pty Ltd, Melbourne Australia).
Overlapping biotinylated fragments 1 to 4 were coated onto streptavidin coated polystyrene plates (Pierce, Rockford Ill. USA, Cat No. 15125) and the ELISA performed substantially according to manufacturers instructions. Briefly, wells are washed with 3×200 μl of wash buffer (TBS, 0.1% BSA, 0.05% Tween 20 or SuperBlock™ blocking buffer in TBS, Pierce, Prod. No. 37535) prior to addition of biotinylated peptides (100 μl) and incubation for 1 hr at room temperature to allow for capture of the peptides on the plate. Following another washing step, peptides were overlayed with GST-ERK, ERK (or JNK-1) alone at a volume of 100 μl per well, and the plates incubated for a further 1 hr at room temperature before removal of any unbound ERK by further washing.
Binding of ERK to the peptides is detected using 100 μl anti-ERK1/2 mAb SC1647 (Santa Cruz) as the primary antibody at a dilution of 1:700 (isotype matched antibody IgG2b is used as a control). This is followed by another washing step and addition of 100 μl rabbit anti-mouse antibody (Biorad) conjugated to alkaline phosphatase at a concentration of 1:1000 for 30 minutes again at room temperature. A […] of detection reagent (alkaline phosphatase detection kit-Biorad) is then introduced into each well after a final washing step and allowed to react for 15-30 minutes at room temperature in the dark before absorbance is measured at 405 nm. All dilutions of peptides, MAP kinase and antibodies were performed using the wash buffer. GST-ERK is a fusion protein consisting of ERK coupled to glutathione-S-transferase and purified from host cells transfected with pGEX vector.
To further localise the binding domain on the cytoplasmic tail of the β6 subunit, progressively shorter peptides from the region of the β6 cytoplasmic tail corresponding to peptide fragment 2 were synthesised, biotinylated and the capacity to associate or otherwise bind to ERK2 assessed as described above. The binding of GST.ERK2 to a 15 mer test peptide (seq. 4) having the amino acid sequence RSKAKWQTGTNPLYR (SEQ ID NO: 7) and a 10 mer test peptide having the sequence RSKAKWQTGT (SEQ ID NO: 21) is shown in FIG. 20 compared to fragment 2 over a range of concentrations of the peptides. […] 4 peptide compared to fragment 2 was found. Binding of ERK2 to the seq. 3 peptide was substantially less than that observed for seq. 4.
Binding of ERK2 to the seq.4 peptide (RSKAKWQTGTNPLYR) (SEQ ID NO: 7) was compared with peptides corresponding to regions of the cytoplasmic domain of integrin subunits β1, β2, β3 and β5. The amino acid sequences for those peptides is shown below:
To evaluate this, cell lysates containing equal protein loads were prepared from SW480 wild-type cells and SW480 cells transfected with either vector alone (mock transfectants), wild type β6 or the β6 deletion mutant Δ746-764 (lacking the sequence EAERSKAKWQTGTNPLYRG (SEQ ID NO: 26), Cone et al, 1994). The lysates were immunoprecipitated with mAbs R6G9 (anti-β6), P1F6 (anti-β5) or murine IgG control antibody (mlgG). […] To determine whether β5 can bind ERK2 in vitro, a 15-mer peptide fragment derived from the β5 cytoplasmic domain corresponding to the ERK binding domain on β6 was tested for its ability to bind ERK2 in an ELISA.

[2] = tested on: HT29 colon cancer cells; experiment: WST-1 growth inhibition study, HT29; assay type: cell-based, human; settings: HT29, 10 μm, 24 hours, serum-free; FIG. 28
Protocol: (§1) HT29 and SW480 β6-expressing colon cancer cell lines were seeded into wells of 96-well microtitre plates (Nunclon) in Dulbecco's Modified Eagle's Medium (DMEM) supplemented with 10% foetal bovine serum, glutamine, Hepes, and antibiotics. […] The cell proliferation reagent WST-1 is designed to be used for the non-radioactive, spectrophotometric quantification of cell growth and viability in proliferation and chemosensitivity assays. […]
(§2) Specifically, at the termination of experiments, 30 μl of WST-1 was added to 270 μl culture medium volume in each microtitre well and the colour change quantitated in an ELISA plate reader by measuring absorbance of the formazan product at […] (using a reference wavelength of more than 600 nm). The mean absorbance readings from triplicate wells (±standard error of the means) after subtraction of background control wells (culture medium without cells) was determined.

[3] = tested on: SW480 β6 transfectants; experiment: WST-1 growth inhibition, SW480 β6-expressing cells; assay type: cell-based, human; settings: 30 μm, 24 hours, serum-free, FIG. 29
Protocol: as §1, §2
[…] Percentage inhibition was assessed by the WST-1 colorimetric dehydrogenase assay described in Example 6. […]

[4] = tested on: SW480 cells; experiment: In vitro wound assay (cell migration); assay type: cell-based, human; settings: SW480 lacking αvβ6, 1.25-10 μM, 48 hours, 1% foetal calf serum; FIG. 40
Protocol: The wound assay was performed by seeding 2×10^5 cells into 24 well (1.6 cm diameter) tissue culture plates in Dulbecco's modified Eagles medium (DMEM) supplemented by 10% foetal calf serum, HEPES, glutamine and antibiotics. The confluent cell monolayers were streaked with the tip of a plastic pipette in a cross-wire fashion, and loose non-adherent cells washed off gently with medium before replacing the culture medium with DMEM supplemented with 1% foetal calf serum. In addition, RSKAKWQTGTNPLYR (SEQ ID NO: 7) peptide ligated to penetratin (carrier peptide) by means of cysteine Cys (Npys) bonding was added to each well at a final concentration in the range of 1.25-10 μM. Cell migration across the wounded (streaked) area was photographed (Techpan, Kodachrome, ASA100) after a further 48 hours in culture. […] The conditions utilised in the assay were as follows: A: no peptide-penetratin complex added, B: 2.5 μM peptide-penetratin complex added, C: 5 μM peptide-penetratin complex added, D: 10 μM peptide-penetratin complex added.

T1 sequence (P63085 whole entry, the tested form may be a part): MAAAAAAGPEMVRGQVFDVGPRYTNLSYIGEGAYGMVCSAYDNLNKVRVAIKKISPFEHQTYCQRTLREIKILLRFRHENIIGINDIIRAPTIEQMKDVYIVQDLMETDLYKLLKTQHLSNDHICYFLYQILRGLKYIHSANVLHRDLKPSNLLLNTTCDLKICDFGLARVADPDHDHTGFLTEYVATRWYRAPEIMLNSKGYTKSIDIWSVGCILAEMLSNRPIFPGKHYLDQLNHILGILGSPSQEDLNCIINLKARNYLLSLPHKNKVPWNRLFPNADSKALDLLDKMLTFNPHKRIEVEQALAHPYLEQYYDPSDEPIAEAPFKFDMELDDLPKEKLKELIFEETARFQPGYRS

Sequence: RSKAKWQTGTNPLYR (also: biotinylated, site not given here) [seq. 4, 15 mer fragment of the β6 cytoplasmic domain]
- binding of ERK2 to integrin subunit peptides ([1]; corrected for non-specific binding, FIG. 34): significant binding
- binding of GST.ERK2 to peptide ([1]; over a range of concentrations of the peptides, compared to fragment 2, FIG. 20): no reduction in binding
- inhibition of cell proliferation (WST-1) [2]: Only the carrier penetratin-peptide complex was effective in inhibiting cell proliferation in contrast to either peptide or penetratin alone
- inhibition of cell proliferation (WST-1) [3]: Only the carrier penetratin-peptide complex was effective in inhibiting cell proliferation in contrast to either peptide or penetratin alone
- cell migration across wounded area (wound repair) [4]: not stimulated
